Read-outs that look alike come from different tables or passages of the source.
How the values were obtained:
[1] = scale 1 to 100, glucose rated 100, cited from earlier work
healthy people = experiment: Glycemic Index (GI) test, two-hour blood glucose response vs glucose reference; format: in vivo, humans; conditions: when added to sugar; conclusion of Example 11
Procedure: This study was conducted by the Human Nutrition Unit at the University of Sydney using internationally recognised GI methodology, which has been validated by results obtained from small experimental studies and large multi-centre research trials. The experimental procedures used in this study were in accordance with international standards for conducting ethical research with humans and were approved by the Human Research Ethics Committee of Sydney University.
Using standard methodology to determine a food's GI value, a portion of the food containing between 10 and 50 grams of available carbohydrate is fed to 10 healthy people the morning after they have fasted for 10-12 hours overnight. A fasting blood sample is first obtained from each person and then the food is consumed, after which additional blood samples are obtained at regular intervals during the next two hours. In this way, it's possible to measure the total increase in blood sugar produced by that food over a two-hour period. […]
For each subject, the concentration of glucose in each of the eight whole blood samples collected from them during each test session was analysed in duplicate using a HemoCue® B-glucose photometric analyser employing a glucose dehydrogenase/mutarotase enzymatic assay (HemoCue AB, Ängelholm, Sweden). […] Therefore, each blood sample was analysed immediately after it was collected. […]

Q: For `O=C(CO)[C@@H](O)[C@H](O)[C@H](O)CO` [fructose], which “glycemic index (GI)” value [1] is on record?
A: 23

Q: With `O=C[C@H](O)[C@@H](O)[C@@H](O)[C@H](O)CO` [galactose] as the molecule, how does the “effect on the GI of sugar” value (healthy people) read?
A: reduces the GI to a low level

Q: For `OC[C@H]1O[C@@](CO)(O[C@H]2O[C@H](CO)[C@@H](O)[C@H](O)[C@H]2O)[C@@H](O)[C@@H]1O` [sucrose], which “glycemic index (GI)” value [1] is on record?
A: about 65

Q: And the “glycemic index (GI)” value ([1]; listed as table sugar)?
A: 65
